Source: patent US4703107A, “Water-soluble acylated derivatives of peptides or amino acids, their preparation and their use” (priority 1983, dated 1987)
Converted amounts (≈) assume the structure as drawn. Where a name gives a salt, the structure may show the parent alone. Read-outs that look alike come from different tables or passages of the source. Where a SMILES comes first, the peptide text is derived from it. The star is where a group is joined. Doxorubicin(3'-N) = COc1cccc2c1C(=O)c1c(O)c3c(c(O)c1C2=O)C[C@@](O)(C(=O)CO)C[C@@H]3O[C@H]1C[C@H](N*)[C@H](O)[C@H](C)O1; dGluconoyl = O=C([C@H](O)[C@@H](O)[C@H](O)[C@H](O)CO)*; NH(9-Et-carbazol-3-yl) = CCn1c2ccccc2c2cc(N*)ccc21; AMC = Cc1cc(=O)oc2cc(N*)ccc12

Tests used:
[1] = Solubility in distilled water / aqueous solution; format: physicochemical; settings: for solubility in distilled water: at 20° C.
Protocol: The solubility of the PHA-L-Ala-L-Ala-L-Pro-L-Ala-AEC is greater than 80 mg/ml in distilled water or a buffer with a pH between 3 and 9.
The solubility of this compound in distilled water is 2.0 mM/l at 20° C.
The influence of the length of the N-acylating polyhydroxyalcanoyl group on the water solubility of fluorogenic substrates is shown in Table III in the case of a chymotrypsin specific substrate PHA-L-Ala-L-Ala-L-Phe-7-amido-4-methylcoumarin.

[2] = pH 8.1, aqueous buffer
[3] = Table IV; same values as Table I
[4] = tested on: leucemic cells L1210, Lewis lung carcinoma "3LL"; test: Penetration into and death of tumor cells; format: cell-based
mice = test: Toxicity of prodrugs on mice; format: in vivo; settings: for Apparent lesions: two intravenous injections at days 0 and 2, footnotes to day 30 column; for Number of surviving mice at day 8 / Number of surviving mice at day 30 / Weight variation at day 8: two intravenous injections at days 0 and 2, mg/kg/injection: ADR 19,7, GlcA-Gly-Pro-Lys-ADR 35,1, GlcA-Ile-Phe-Lys-ADR 37,0
Source text: GlcA-Gly-Pro-Lys-Adriamycin and GlcA-Ile-Phe-Lys-Adriamycin was studied on mice after two intravenous injections at days 0 and 2.

[5] = Table III, water solubility, 20° C., read-out: SOLUBILITY (mM AT 20° C.)

Row | Structure (SMILES) | solubility [2] [mM] | solubility [3] [mM] | other results
1 | CCn1c2ccccc2c2cc(NC(=O)[C@H](C)NC(=O)[C@@H]3CCCN3C(=O)[C@H](C)NC(=O)[C@H](C)NC(=O)[C@H](O)[C@@H](O)[C@H](O)[C@H](O)CO)ccc21 [PHA-L-Ala-L-Ala-L-Pro-L-Ala-AEC] (dGluconoyl-AAPA-{NH(9-Et-carbazol-3-yl)}) |  |  | solubility ([1]; aqueous with cosolvent or surfactant or cyclodextrin, in distilled water or a buffer with a pH between 3 and 9, read-out: solubility): > 80 mg/mL
2 | CC[C@H](C)[C@H](NC(=O)CNC(=O)[C@H](O)[C@@H](O)[C@H](O)[C@H](O)CO)C(=O)N[C@@H](Cc1ccccc1)C(=O)N[C@@H](CCCCN)C(=O)Nc1ccc2c(c1)c1ccccc1n2CC [GlcA--Gly--Ile--Phe--Lys--AEC] (dGluconoyl-GIFK-{NH(9-Et-carbazol-3-yl)}) | 2.5 (≈ 2.08 mg/mL) |  | 
3 | CCn1c2ccccc2c2cc(NC(=O)[C@H](CCCNC(=N)N)NC(=O)[C@H](Cc3ccccc3)NC(=O)[C@@H](NC(=O)[C@H](O)[C@@H](O)[C@H](O)[C@H](O)CO)C(C)C)ccc21 [GlcA--Val--Phe--Arg--AEC] | 100 (≈ 79.1 mg/mL) | 100 (≈ 79.1 mg/mL) | 
4 | Cc1cc(=O)oc2cc(NC(=O)[C@H](Cc3ccccc3)NC(=O)[C@H](C)NC(=O)[C@H](C)NC(=O)[C@H](O)[C@@H](O)[C@H](O)[C@H](O)CO)ccc12 [gluconoyl-L-Ala-L-Ala-L-Phe-AMC] |  |  | solubility [1, 5]: 2.4 mM; solubility in distilled water [1]: 2.4 mM/l
5 | CC[C@H](C)[C@H](NC(=O)OCc1ccccc1)C(=O)N[C@@H](Cc1ccccc1)C(=O)N[C@@H](CCCCN)C(=O)Nc1ccc2c(c1)c1ccccc1n2CC [Z--Ile--Phe--Lys--AEC, reference compound] | 0.03 (≈ 0.022 mg/mL) |  | 
6 | CCn1c2ccccc2c2cc(NC(=O)[C@H](CCCNC(=N)N)NC(=O)[C@H](CC(C)C)NC(=O)[C@@H](NC(=O)[C@H](O)[C@@H](O)[C@H](O)[C@H](O)CO)C(C)C)ccc21 [GlcA--Val--Leu--Arg--AEC] | 227 (≈ 172 mg/mL) | 227 (≈ 172 mg/mL) | 
7 | COc1cccc2c1C(=O)c1c(O)c3c(c(O)c1C2=O)C[C@@](O)(C(=O)CO)C[C@@H]3O[C@H]1C[C@H](NC(=O)[C@@H](N)CC(C)C)[C@H](O)[C@H](C)O1 [L-Leu-Adriamycine, L-Leu-Adriamycin] |  |  | penetration into tumor cells ([4]; leucemic cells L1210, Lewis lung carcinoma 3LL): penetrates the tumor cells; death of tumor cells ([4]; tumor cells): causes the death of these cells
8 | CCn1c2ccccc2c2cc(NC(=O)[C@H](CCCNC(=N)N)NC(=O)[C@H](Cc3ccccc3)NC(=O)[C@@H](NC(=O)CNC(=O)[C@H](O)[C@@H](O)[C@H](O)[C@H](O)CO)C(C)C)ccc21 [GlcA--Gly--Val--Phe--Arg--AEC] (dGluconoyl-GVFR-{NH(9-Et-carbazol-3-yl)}) | 3.6 (≈ 3.05 mg/mL) | 3.6 (≈ 3.05 mg/mL) | 
9 | CCn1c2ccccc2c2cc(NC(=O)[C@H](CCCCN)NC(=O)[C@H](Cc3ccccc3)NC(=O)[C@@H](NC(=O)[C@H](O)[C@@H](O)[C@H](O)[C@H](O)CO)C(C)C)ccc21 [GlcA--Val--Phe--Lys--AEC] | 165 (≈ 126 mg/mL) | 165 (≈ 126 mg/mL) | 
10 | CC[C@H](C)[C@H](NC(=O)[C@H](O)[C@@H](O)[C@H](O)[C@H](O)CO)C(=O)N[C@@H](Cc1ccccc1)C(=O)N[C@@H](CCCCN)C(=O)N[C@H]1C[C@H](O[C@H]2C[C@](O)(C(=O)CO)Cc3c(O)c4c(c(O)c32)C(=O)c2c(OC)cccc2C4=O)O[C@@H](C)[C@H]1O [GlcA--Ile--Phe--Lys--ADR, Glc A-L-Ile-L-Phe-L-Lys-Adriamycin] |  |  | Apparent lesions (mice): No apparent lesion; Number of surviving mice at day 8 (mice): 8/8; Number of surviving mice at day 30 (mice): 8/8; Weight variation at day 8 (mice): +14,7%
11 | CC[C@H](C)[C@H](NC(=O)[C@H](O)[C@@H](O)[C@H](O)[C@H](O)CO)C(=O)N[C@@H](Cc1ccccc1)C(=O)N[C@@H](CCCNC(=N)N)C(=O)Nc1ccc2c(c1)c1ccccc1n2CC [GlcA--Ile--Phe--Arg--AEC] | 1.1 (≈ 0.885 mg/mL) |  | 
12 | COc1cccc2c1C(=O)c1c(O)c3c(c(O)c1C2=O)C[C@@](O)(C(=O)CO)C[C@@H]3O[C@H]1C[C@H](NC(=O)[C@H](CCCCN)NC(=O)[C@@H]2CCCN2C(=O)CNC(=O)[C@H](O)[C@@H](O)[C@H](O)[C@H](O)CO)[C@H](O)[C@H](C)O1 [GlcA--Gly--Pro--Lys--ADR, PHA-Gly-L-Pro-L-Lys-Adriamycin] |  |  | Apparent lesions (mice): No apparent lesion; Number of surviving mice at day 8 (mice): 8/8; Number of surviving mice at day 30 (mice): 8/8; Weight variation at day 8 (mice): +15,2%
13 | Cc1cc(=O)oc2cc(NC(=O)[C@H](Cc3ccccc3)NC(=O)[C@H](C)NC(=O)[C@H](C)NC(=O)C(O)C(O)C(O)C(O)C(O)C(O)CO)ccc12 (stereo partly drawn) [glucooctanoyl-L-Ala-L-Ala-L-Phe-AMC] |  |  | solubility [1, 5]: 3.2 mM; solubility in distilled water [1]: 3.2 mM/l
14 | CCn1c2ccccc2c2cc(NC(=O)[C@H](CCCCN)NC(=O)CNC(=O)[C@H](CC(C)C)NC(=O)[C@@H](NC(=O)[C@H](O)[C@@H](O)[C@H](O)[C@H](O)CO)C(C)C)ccc21 [GlcA--Val--Leu--Gly--Lys--AEC] (dGluconoyl-VLGK-{NH(9-Et-carbazol-3-yl)}) | 62 (≈ 48.7 mg/mL) |  | 
15 | COc1cccc2c1C(=O)c1c(O)c3c(c(O)c1C2=O)C[C@@](O)(C(=O)CO)C[C@@H]3O[C@H]1C[C@H](N)[C@H](O)[C@H](C)O1 [ADR, Adriamycin, reference compound] |  |  | Number of surviving mice at day 8 (mice): 0/8; Number of surviving mice at day 30 (mice): 0/8; Weight variation at day 8 (mice): -17,8%
16 | CCn1c2ccccc2c2cc(NC(=O)[C@H](CCCNC(=N)N)NC(=O)CNC(=O)[C@H](CC(C)C)NC(=O)[C@@H](NC(=O)[C@H](O)[C@@H](O)[C@H](O)[C@H](O)CO)C(C)C)ccc21 [GlcA--Val--Leu--Gly--Arg--AEC] (dGluconoyl-VLGR-{NH(9-Et-carbazol-3-yl)}) | 67 (≈ 54.5 mg/mL) | 67 (≈ 54.5 mg/mL) | 
17 | CC[C@H](C)[C@H](NC(=O)OC(C)(C)C)C(=O)N[C@@H](Cc1ccccc1)C(=O)N[C@@H](CCCCN)C(=O)Nc1ccc2c(c1)c1ccccc1n2CC [Boc--Ile--Phe--Lys--AEC, reference compound] | 0.04 (≈ 0.028 mg/mL) |  | 
18 | CCn1c2ccccc2c2cc(NC(=O)[C@H](CCCCN)NC(=O)CNC(=O)[C@H](CO)NC(=O)[C@H](O)[C@@H](O)[C@H](O)[C@H](O)CO)ccc21 [GlcA--Ser--Gly--Lys--AEC] | 54 (≈ 35.7 mg/mL) |  | 
19 | CCn1c2ccccc2c2cc(NC(=O)[C@H](CCCCN)NC(=O)[C@H](CC(C)C)NC(=O)[C@@H](NC(=O)[C@H](O)[C@@H](O)[C@H](O)[C@H](O)CO)C(C)C)ccc21 [GlcA--Val--Leu--Lys--AEC] | 250 (≈ 182 mg/mL) | 250 (≈ 182 mg/mL) | 
20 | Cc1cc(=O)oc2cc(NC(=O)[C@H](Cc3ccccc3)NC(=O)[C@H](C)NC(=O)[C@H](C)NC(=O)[C@H](O)[C@H](O)[C@H](O)CO)ccc12 [ribonoyl-L-Ala-L-Ala-L-Phe-AMC] |  |  | solubility [1, 5]: 2 mM; solubility in distilled water [1]: 2.0 mM/l
21 | CC[C@H](C)[C@H](NC(=O)[C@H](O)[C@@H](O)[C@H](O)[C@H](O)CO)C(=O)N[C@@H](Cc1ccccc1)C(=O)N[C@@H](CCCCN)C(=O)Nc1ccc2c(c1)c1ccccc1n2CC [GlcA--Ile--Phe--Lys--AEC, Glc A-Ile-Phe-Lys-AEC, HCl] | 0.54 |  | 
22 | CC[C@H](C)[C@H](NC(=O)[C@H](O)[C@@H](O)[C@H](O)[C@H](O)CO)C(=O)N[C@@H](CC(C)C)C(=O)N[C@@H](CCCNC(=N)N)C(=O)Nc1ccc2c(c1)c1ccccc1n2CC [GlcA--Ile--Leu--Arg--AEC] | 143 (≈ 110 mg/mL) | 143 (≈ 110 mg/mL) | 
23 | CCn1c2ccccc2c2cc(NC(=O)[C@H](CCCCN)NC(=O)[C@H](CC(C)C)NC(=O)[C@@H](NC(=O)OC(C)(C)C)C(C)C)ccc21 [Boc--Val--Leu--Lys--AEC, reference compound] | 2.5 (≈ 1.63 mg/mL) |  | 
24 | CCn1c2ccccc2c2cc(NC(=O)[C@H](CCCCN)NC(=O)[C@@H]3CCCN3C(=O)CNC(=O)OCc3ccccc3)ccc21 [Z--Gly--Pro--Lys--AEC, reference compound] | 0.2 (≈ 0.125 mg/mL) |  | 
25 | CC(=O)N[C@@H](C)C(=O)N[C@@H](C)C(=O)N[C@@H](Cc1ccccc1)C(=O)Nc1ccc2c(C)cc(=O)oc2c1 [AcAlaAlaPheAMC, reference compound] (Ac-Ala-Ala-Phe-{AMC}) |  |  | solubility [1, 5]: 0.2 mM
26 | CCn1c2ccccc2c2cc(NC(=O)[C@H](CCCCN)NC(=O)[C@H](Cc3ccccc3)NC(=O)[C@@H](NC(=O)CNC(=O)[C@H](O)[C@@H](O)[C@H](O)[C@H](O)CO)C(C)C)ccc21 [GlcA--Gly--Val--Phe--Lys--AEC] (dGluconoyl-GVFK-{NH(9-Et-carbazol-3-yl)}) | 4.2 (≈ 3.44 mg/mL) | 4.2 (≈ 3.44 mg/mL) | 
27 | CCn1c2ccccc2c2cc(NC(=O)[C@H](CCCCN)NC(=O)[C@@H]3CCCN3C(=O)CNC(=O)[C@H](O)[C@@H](O)[C@H](O)[C@H](O)CO)ccc21 [GlcA--Gly--Pro--Lys--AEC] | 380 (≈ 255 mg/mL) | 380 (≈ 255 mg/mL) | 
28 | COc1cccc2c1C(=O)c1c(O)c3c(c(O)c1C2=O)C[C@@](O)(C(=O)CO)C[C@@H]3O[C@H]1C[C@H](NC(=O)[C@H](CC(C)C)NC(=O)[C@H](CCCNC(=N)N)NC(=O)[C@@H]2CCCN2C(=O)[C@H](Cc2ccccc2)NC(=O)[C@H](O)[C@@H](O)[C@H](O)[C@H](O)CO)[C@H](O)[C@H](C)O1 [PHA-L-Phe-L-Pro-L-Arg-L-Leu-Adriamycin] (dGluconoyl-FPRL-{Doxorubicin(3'-N)}) |  |  | solubility in water ([1]; water): soluble in water
29 | CC[C@H](C)[C@H](NC(=O)[C@H](O)[C@@H](O)[C@H](O)[C@H](O)CO)C(=O)N[C@@H](CC(C)C)C(=O)N[C@@H](CCCCN)C(=O)Nc1ccc2c(c1)c1ccccc1n2CC [GlcA--Ile--Leu--Lys--AEC] | 94 (≈ 69.8 mg/mL) | 94 (≈ 69.8 mg/mL) | 
